Reference: the supplement of paper PMC12076712

Key:
Assay in all cases: pIC50, kinobeads binding competition
CDK5 = CDK5 (UniProt Q00535)
In short: (§1)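 Jurkat cells were exposed alive to nine compound concentrations (top 30 μM, 1:4 steps) or vehicle for 60 min at 37 °C and then lysed. In a second format, nine concentrations (top 30 μM, 1:5 steps) were incubated for 60 min at 4 °C with Jurkat lysate or with a 1:1:1:1 lysate mix of HEK293, K-562, HepG2 and placenta. Proteins captured on Kinobeads were digested and quantified by TMT10 LC-MS/MS. pIC50 values were derived from logistic dose-response fits (R drc package) of fold changes relative to vehicle, in biological duplicates.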

Fyn = Fyn (UniProt P06241)
Sequence of Fyn (P06241 whole entry, looked up): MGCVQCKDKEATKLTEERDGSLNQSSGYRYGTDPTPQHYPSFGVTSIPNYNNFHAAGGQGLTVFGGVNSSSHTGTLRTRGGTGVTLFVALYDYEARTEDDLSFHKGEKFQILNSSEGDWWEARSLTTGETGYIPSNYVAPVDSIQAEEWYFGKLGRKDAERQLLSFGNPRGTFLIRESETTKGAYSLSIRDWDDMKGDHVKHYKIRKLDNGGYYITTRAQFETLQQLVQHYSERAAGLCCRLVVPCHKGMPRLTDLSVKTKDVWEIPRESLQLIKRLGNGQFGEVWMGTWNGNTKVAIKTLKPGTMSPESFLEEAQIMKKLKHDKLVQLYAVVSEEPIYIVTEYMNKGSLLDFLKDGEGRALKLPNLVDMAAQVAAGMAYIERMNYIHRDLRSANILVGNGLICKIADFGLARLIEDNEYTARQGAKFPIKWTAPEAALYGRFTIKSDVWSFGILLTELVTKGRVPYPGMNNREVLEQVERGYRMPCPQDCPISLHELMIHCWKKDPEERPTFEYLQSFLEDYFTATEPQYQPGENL
In short: as §1

HIPK3 = HIPK3 (UniProt Q9H422)
Sequence of HIPK3 (Q9H422 whole entry, looked up): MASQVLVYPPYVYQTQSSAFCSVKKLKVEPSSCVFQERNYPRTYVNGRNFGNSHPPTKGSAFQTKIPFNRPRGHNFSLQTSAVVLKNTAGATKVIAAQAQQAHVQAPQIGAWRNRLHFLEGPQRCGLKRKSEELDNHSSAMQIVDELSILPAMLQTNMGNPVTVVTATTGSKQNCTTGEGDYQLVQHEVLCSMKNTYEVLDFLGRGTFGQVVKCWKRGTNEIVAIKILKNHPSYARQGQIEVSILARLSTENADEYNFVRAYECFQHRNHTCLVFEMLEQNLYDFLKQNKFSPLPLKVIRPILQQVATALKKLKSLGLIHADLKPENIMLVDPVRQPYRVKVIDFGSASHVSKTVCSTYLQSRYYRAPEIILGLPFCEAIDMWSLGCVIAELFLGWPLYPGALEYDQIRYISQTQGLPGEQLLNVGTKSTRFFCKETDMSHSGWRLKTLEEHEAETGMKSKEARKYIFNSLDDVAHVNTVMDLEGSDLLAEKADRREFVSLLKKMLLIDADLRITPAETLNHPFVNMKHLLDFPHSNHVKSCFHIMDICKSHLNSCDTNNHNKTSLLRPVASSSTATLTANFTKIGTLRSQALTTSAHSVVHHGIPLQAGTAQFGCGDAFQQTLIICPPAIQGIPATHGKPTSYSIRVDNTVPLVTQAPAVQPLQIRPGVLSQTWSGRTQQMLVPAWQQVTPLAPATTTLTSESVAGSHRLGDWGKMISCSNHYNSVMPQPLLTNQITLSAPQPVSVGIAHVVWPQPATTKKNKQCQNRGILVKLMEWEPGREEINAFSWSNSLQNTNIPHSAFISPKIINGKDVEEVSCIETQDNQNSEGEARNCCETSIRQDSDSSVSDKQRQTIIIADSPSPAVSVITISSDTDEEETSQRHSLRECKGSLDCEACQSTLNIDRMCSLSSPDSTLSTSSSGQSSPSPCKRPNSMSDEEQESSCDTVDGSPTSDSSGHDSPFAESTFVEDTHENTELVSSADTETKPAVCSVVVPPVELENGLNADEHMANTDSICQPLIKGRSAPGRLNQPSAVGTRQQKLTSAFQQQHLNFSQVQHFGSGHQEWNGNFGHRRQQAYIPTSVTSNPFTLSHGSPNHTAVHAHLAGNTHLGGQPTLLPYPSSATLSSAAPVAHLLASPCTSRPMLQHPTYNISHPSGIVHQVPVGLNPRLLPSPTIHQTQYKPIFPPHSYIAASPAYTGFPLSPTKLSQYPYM
In short: as §1

Hck = Hck (UniProt P08631); conditions: cell material: Lysate mix
Sequence of Hck (P08631 whole entry, looked up): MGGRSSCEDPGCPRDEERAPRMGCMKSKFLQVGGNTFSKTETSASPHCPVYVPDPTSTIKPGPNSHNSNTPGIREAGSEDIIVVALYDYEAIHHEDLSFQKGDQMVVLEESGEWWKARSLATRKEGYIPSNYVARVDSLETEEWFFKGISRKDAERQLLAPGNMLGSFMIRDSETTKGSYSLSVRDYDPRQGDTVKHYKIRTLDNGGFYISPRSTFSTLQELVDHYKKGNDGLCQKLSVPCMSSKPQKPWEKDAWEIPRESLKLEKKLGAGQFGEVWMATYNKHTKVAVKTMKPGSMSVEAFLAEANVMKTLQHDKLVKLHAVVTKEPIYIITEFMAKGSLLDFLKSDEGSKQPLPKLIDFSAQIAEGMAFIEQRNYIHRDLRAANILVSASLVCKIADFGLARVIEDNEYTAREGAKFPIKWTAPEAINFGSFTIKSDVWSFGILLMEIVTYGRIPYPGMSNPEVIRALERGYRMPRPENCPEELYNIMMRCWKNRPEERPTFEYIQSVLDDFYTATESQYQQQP
In short: as §1

ICK = biological target: T1, ICK (UniProt Q9UPZ9)
T1 sequence (whole entry): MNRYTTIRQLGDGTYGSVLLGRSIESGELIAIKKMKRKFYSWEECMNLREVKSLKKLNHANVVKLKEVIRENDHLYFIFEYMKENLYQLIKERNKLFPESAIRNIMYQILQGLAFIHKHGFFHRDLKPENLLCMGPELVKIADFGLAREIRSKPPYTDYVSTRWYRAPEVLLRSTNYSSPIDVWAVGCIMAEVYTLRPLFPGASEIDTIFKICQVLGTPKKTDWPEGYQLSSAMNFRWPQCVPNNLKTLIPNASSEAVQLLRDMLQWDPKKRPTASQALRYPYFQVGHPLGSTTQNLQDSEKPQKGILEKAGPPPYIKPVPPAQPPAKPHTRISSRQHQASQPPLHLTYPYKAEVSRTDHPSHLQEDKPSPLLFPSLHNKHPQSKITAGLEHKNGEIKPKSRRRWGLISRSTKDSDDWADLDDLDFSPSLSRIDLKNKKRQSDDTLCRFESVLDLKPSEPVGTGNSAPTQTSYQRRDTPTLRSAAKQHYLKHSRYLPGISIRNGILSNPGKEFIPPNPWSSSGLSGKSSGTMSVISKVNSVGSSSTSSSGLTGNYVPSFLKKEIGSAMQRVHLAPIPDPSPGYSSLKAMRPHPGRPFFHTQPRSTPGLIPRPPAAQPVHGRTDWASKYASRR
In short: as §1

MAP3K15 = biological target: T2, MAP3K15 (UniProt Q6ZN16); conditions: cell material: Lysate mix
T2 sequence (whole entry): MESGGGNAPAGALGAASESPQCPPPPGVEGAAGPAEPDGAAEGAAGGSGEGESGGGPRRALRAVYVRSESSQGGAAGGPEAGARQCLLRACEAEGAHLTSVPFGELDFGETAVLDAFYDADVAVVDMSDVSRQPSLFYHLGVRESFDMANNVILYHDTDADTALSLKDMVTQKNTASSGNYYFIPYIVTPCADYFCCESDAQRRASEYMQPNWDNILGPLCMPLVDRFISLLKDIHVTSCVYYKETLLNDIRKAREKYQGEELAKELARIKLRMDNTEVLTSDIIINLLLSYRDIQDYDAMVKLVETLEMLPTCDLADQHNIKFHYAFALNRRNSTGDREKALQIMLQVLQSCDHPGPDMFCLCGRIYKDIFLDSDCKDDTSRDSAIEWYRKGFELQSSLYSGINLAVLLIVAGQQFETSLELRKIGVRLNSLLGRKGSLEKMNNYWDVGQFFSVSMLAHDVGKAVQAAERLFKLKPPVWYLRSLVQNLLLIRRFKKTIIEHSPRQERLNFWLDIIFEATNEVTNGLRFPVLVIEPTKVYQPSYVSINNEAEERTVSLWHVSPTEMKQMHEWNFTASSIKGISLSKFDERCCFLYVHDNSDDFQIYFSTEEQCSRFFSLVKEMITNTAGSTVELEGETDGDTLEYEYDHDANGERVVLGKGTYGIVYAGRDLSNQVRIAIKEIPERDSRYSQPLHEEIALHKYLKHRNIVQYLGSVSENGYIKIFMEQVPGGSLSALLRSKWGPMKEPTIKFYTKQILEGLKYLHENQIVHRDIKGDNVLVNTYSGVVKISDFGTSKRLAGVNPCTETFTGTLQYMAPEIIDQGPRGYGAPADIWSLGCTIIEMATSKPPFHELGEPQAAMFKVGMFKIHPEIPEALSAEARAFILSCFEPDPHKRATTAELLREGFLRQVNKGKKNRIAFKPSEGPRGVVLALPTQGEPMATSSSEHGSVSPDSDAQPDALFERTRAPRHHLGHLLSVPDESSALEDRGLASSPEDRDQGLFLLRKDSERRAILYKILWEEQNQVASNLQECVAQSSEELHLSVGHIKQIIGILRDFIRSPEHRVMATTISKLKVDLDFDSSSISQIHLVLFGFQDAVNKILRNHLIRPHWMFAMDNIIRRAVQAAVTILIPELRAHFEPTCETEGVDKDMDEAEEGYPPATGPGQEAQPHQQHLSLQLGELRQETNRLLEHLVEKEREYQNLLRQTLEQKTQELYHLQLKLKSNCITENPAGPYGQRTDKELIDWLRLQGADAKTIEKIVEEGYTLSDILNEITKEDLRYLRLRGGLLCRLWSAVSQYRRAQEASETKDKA
In short: as §1

MAP3K4 = MAP3K4 (UniProt Q9Y6R4)
In short: as §1

MELK = MELK (UniProt Q14680)
Sequence of MELK (Q14680 whole entry, looked up): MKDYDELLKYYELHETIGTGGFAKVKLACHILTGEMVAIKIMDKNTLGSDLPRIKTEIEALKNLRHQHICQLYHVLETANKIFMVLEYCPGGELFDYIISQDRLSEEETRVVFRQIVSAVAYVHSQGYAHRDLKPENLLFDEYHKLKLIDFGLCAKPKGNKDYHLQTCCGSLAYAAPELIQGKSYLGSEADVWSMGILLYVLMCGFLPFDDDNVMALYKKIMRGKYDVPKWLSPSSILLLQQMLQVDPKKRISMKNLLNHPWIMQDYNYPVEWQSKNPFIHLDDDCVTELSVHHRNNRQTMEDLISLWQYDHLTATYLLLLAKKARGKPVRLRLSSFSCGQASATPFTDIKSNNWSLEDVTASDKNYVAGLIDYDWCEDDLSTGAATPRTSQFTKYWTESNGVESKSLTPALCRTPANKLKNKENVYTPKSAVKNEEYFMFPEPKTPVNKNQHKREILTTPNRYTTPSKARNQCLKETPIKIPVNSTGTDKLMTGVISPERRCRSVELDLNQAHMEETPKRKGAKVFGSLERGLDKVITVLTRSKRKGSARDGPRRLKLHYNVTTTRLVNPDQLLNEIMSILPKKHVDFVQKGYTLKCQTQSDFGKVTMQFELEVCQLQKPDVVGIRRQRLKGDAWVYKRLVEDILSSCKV
In short: as §1

PAK4 = PAK4 (UniProt O96013)
Sequence of PAK4 (O96013 whole entry, looked up): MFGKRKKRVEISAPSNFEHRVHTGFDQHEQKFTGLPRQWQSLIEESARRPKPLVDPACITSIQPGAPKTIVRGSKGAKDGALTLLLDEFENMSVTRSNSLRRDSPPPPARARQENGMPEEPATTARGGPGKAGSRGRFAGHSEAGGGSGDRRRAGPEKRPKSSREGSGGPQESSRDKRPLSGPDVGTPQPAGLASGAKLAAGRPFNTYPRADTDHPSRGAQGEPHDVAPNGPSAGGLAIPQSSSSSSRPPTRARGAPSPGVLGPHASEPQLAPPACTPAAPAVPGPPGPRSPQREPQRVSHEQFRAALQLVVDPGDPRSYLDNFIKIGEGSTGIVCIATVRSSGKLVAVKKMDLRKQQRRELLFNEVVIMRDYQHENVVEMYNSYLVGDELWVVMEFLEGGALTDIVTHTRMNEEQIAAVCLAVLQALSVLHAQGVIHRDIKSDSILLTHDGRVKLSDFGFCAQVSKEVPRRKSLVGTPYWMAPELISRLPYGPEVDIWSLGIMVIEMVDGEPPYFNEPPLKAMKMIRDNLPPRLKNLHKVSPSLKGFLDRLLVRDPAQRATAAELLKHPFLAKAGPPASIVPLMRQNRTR
In short: as §1

PIM2 = PIM2 (UniProt Q9P1W9)
Sequence of PIM2 (Q9P1W9 whole entry, looked up): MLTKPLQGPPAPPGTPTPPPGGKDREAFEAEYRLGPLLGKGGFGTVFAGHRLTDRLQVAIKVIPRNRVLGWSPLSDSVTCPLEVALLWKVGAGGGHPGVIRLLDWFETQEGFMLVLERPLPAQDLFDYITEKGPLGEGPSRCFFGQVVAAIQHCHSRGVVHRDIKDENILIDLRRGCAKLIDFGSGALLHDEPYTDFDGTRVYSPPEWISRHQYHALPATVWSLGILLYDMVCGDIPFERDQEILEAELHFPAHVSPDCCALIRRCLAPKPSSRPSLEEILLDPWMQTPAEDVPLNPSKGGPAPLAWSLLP
In short: as §1

ROCK2 = ROCK2 (UniProt O75116)
In short: as §1

UniProt P17252 = biological target: UniProt P17252
In short: as §1

Sequence of CDK5 (Q00535 whole entry, looked up): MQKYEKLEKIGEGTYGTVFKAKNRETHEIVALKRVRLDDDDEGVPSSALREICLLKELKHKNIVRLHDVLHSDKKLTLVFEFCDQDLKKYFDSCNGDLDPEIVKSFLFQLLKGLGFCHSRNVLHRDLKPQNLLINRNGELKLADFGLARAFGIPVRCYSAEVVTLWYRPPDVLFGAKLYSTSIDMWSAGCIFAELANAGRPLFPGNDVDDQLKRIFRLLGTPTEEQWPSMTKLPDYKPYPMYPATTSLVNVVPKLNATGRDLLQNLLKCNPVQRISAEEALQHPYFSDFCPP

| SMILES | pIC50 (CDK5; cell material: Jurkat cells) | pIC50 (CDK5; cell material: Jurkat lysate) | pIC50 (CDK5; cell material: Lysate mix) | pIC50 (Fyn; cell material: Jurkat cells) | pIC50 (Fyn; cell material: Jurkat lysate) | pIC50 (Fyn; cell material: Lysate mix) | pIC50 (HIPK3; cell material: Jurkat cells) | pIC50 (HIPK3; cell material: Jurkat lysate) | pIC50 (HIPK3; cell material: Lysate mix) | pIC50 (Hck) | pIC50 (ICK; cell material: Jurkat cells) | pIC50 (ICK; cell material: Jurkat lysate) | pIC50 (ICK; cell material: Lysate mix) | pIC50 (MAP3K15) | pIC50 (MAP3K4; cell material: Jurkat cells) | pIC50 (MAP3K4; cell material: Jurkat lysate) | pIC50 (MAP3K4; cell material: Lysate mix) | pIC50 (MELK; cell material: Jurkat cells) | pIC50 (MELK; cell material: Jurkat lysate) | pIC50 (MELK; cell material: Lysate mix) | pIC50 (PAK4; cell material: Jurkat cells) | pIC50 (PAK4; cell material: Jurkat lysate) | pIC50 (PAK4; cell material: Lysate mix) | pIC50 (PIM2; cell material: Jurkat lysate) | pIC50 (PIM2; cell material: Lysate mix) | pIC50 (ROCK2; cell material: Jurkat cells) | pIC50 (ROCK2; cell material: Lysate mix) | pIC50 (UniProt P17252; cell material: Jurkat lysate) | pIC50 (UniProt P17252; cell material: Lysate mix) | pIC50 (UniProt P17252; cell material: Jurkat cells) |
| --- | --- | --- | --- | --- | --- | --- | --- | --- | --- | --- | --- | --- | --- | --- | --- | --- | --- | --- | --- | --- | --- | --- | --- | --- | --- | --- | --- | --- | --- | --- |
| O=C(NCCNC(=O)c1cc(Nc2cc(C3CC3)[nH]n2)nc(N2CCN(Cc3ccc(S(=O)(=O)F)cc3)CC2)n1)OC1CC/C=C/CCC1 (stereo not given) | 6.34 | 5.1 | 5.12 | 5.1 | < 4.52 | < 4.52 | 5.22 | < 4.52 | < 4.52 | < 4.52 | 6.56 | 5.31 | 5.38 | < 4.52 | 5.96 | < 4.52 | < 4.52 | < 4.52 | < 4.52 | < 4.52 | 6.17 | < 4.52 | < 4.52 | < 4.52 | < 4.52 | < 4.52 | < 4.52 | < 4.52 | < 4.52 |  |
| Cc1cc(Nc2cc(C(=O)NCCNC(=O)OC3CC/C=C/CCC3)nc(N3CCN(Cc4ccc(S(=O)(=O)F)cc4)CC3)n2)n[nH]1 (stereo not given) |  |  | 4.92 |  |  | 4.58 |  |  | < 4.52 | < 4.52 |  |  | < 4.52 | < 4.52 |  |  | < 4.52 |  |  | < 4.52 |  |  | < 4.52 |  | < 4.52 |  | < 4.52 |  | < 4.52 |  |
| CCNC(=O)c1cc(Nc2cc(C3CC3)[nH]n2)nc(N2CCN(Cc3ccc(S(=O)(=O)F)cc3)CC2)n1 |  |  | 6.06 |  |  | 5.81 |  |  | 5.74 | 5.8 |  |  | 6.46 | < 4.52 |  |  | 5.61 |  |  | < 4.52 |  |  | 5.27 |  | < 4.52 |  | < 4.52 |  | 5.11 |  |
| CCNC(=O)c1cc(Nc2cc(C)[nH]n2)nc(N2CCN(Cc3ccc(S(=O)(=O)F)cc3)CC2)n1 |  |  | 5.93 |  |  | 6.74 |  |  | 4.62 | 5.62 |  |  | 5.64 | 4.94 |  |  | 4.8 |  |  | < 4.52 |  |  | 4.7 |  | < 4.52 |  | < 4.52 |  | < 4.52 |  |
| C#CCNC(=O)c1cc(Nc2cc(C3CC3)[nH]n2)nc(N2CCN(Cc3ccc(S(=O)(=O)F)cc3)CC2)n1 | 6.74 | 5.96 | 6.48 | 5.9 |  | 5.9 | 5.92 | 4.89 | 5.76 | 5.86 |  | 6.22 | 6.53 | < 4.52 | 6.09 | 4.81 | 5.74 | < 4.52 | < 4.52 | < 4.52 | 5.78 | 5.19 | 5.58 | < 4.52 | < 4.52 | 4.76 | < 4.52 | < 4.52 | < 4.52 | 5.48 |
| C#CCNC(=O)c1cc(Nc2cc(C)[nH]n2)nc(N2CCN(Cc3ccc(S(=O)(=O)F)cc3)CC2)n1 |  |  | 6.02 |  |  | 5.93 |  |  | 4.76 | 5.4 |  |  | 5.43 | 4.92 |  |  | 4.88 |  |  | < 4.52 |  |  | 4.8 |  | < 4.52 |  | < 4.52 |  | < 4.52 |  |
